Measurements published in paper PMC3388095, “Fluorophore Labeled Kinase Detects Ligands That Bind within the MAPK Insert of p38α Kinase” (PLoS ONE, 2012).

Molecular target: T1, p38α MAPK insert (Homo sapiens, UniProt Q16539, C119S/C162S/S252C)
T1 construct: His-tag with PreScission Protease cleavage site (N); made in house; host or cells: E. coli BL21(DE3) Codon+RIL
Assay: FLiK direct binding assay, acrylodan-labeled p38α (S252C) MAPK insert / lipid binding site
Settings: binding to p38α MAPK insert
Method: The human p38α kinase construct containing the mutations required for specific labeling (C119S/C162S/S252C) as well as wild type p38α were cloned into a pOPINF vector and transformed as an N-terminal His-tag construct with a PreScission Protease cleavage site into BL21(DE3) Codon+RIL E. coli. Protein expression, purification, fluorophore labeling and verification of mono-labeling of the kinase were performed essentially as described previously. Labeling of the mutant p38α protein with thiol-reactive acrylodan was carried out by adding a 1.5∶1 molar excess of the fluorophore (dissolved in DMSO) to the purified protein in 50 mM Hepes Buffer (pH 7.0). The mixture was allowed to react in the dark overnight at 4°C. Unreacted acrylodan was subsequently removed by three cycles of buffer exchange into FLiK Measurement Buffer (50 mM Hepes Buffer, pH 7.4+200 mM NaCl) using a 10k-MWCO Centricon. The protein was concentrated to ∼200 μM, aliquoted and frozen at −80°C. Mono-labeling of the protein was verified by ESI-MS as described previously, [24].
Characterization of the fluorescence response of MAP insert-labeled p38α was carried out as described previously for p38α labeled on the activation loop. […] Briefly, a polystyrene cuvette containing a suspension of 50 nM acrylodan-labeled p38α in FLiK Buffer was excited at 386 nm and emission spectra were measured in the absence and presence of increasing concentrations of 1b. The compound was dissolved in 100% DMSO and delivered in sequential small doses to a single sample. […] Ratiometric fluorescence readouts are advantageous in that they provide an internal correction for small errors in sample volume which can affect signal intensity. All measurements of the cuvettes were made with a JASCO FP-6500 fluorescence spectrophotometer (JASCO GmbH, Germany).
The assay was adapted to high-throughput screening formats which enabled KD values to be determined in black small volume assay plates. Briefly, a dilution series of each compound was first prepared in 100% DMSO at 20X the desired final concentration and 1 μL was transferred to the assay plate. Compounds were then mixed with 19 µL of FLiK Buffer (supplemented with 0.01% Triton X-100) containing acrylodan-labeled p38α (100 nM). The final concentration of compound in the dilution series ranged from 0–50 μM (5% v/v DMSO final). Plates were covered with an adhesive aluminum foil and incubated for 30 min at RT prior to measurement of emission intensities at 470 and 520 nm using a Tecan Safire^2 plate reader. […] Binding curves were plotted using the ratio R = I520/I470 to determine the KD.

[1] = ratiometric acrylodan emission, each concentration in triplicate

T1 sequence (Q16539 whole entry C119S/C162S/S252C): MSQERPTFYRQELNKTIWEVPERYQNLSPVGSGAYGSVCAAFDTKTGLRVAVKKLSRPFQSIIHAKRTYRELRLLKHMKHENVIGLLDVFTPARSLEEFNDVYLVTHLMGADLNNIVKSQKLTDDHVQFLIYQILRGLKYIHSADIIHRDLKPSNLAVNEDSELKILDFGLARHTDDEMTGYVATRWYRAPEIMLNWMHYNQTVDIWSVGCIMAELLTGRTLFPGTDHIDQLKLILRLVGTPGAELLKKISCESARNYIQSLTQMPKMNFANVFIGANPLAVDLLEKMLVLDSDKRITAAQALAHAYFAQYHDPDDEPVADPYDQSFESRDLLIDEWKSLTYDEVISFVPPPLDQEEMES

Row | SMILES | Kd [1] | Kd (value as printed in text)
1 | O=[N+]([O-])c1ccc2c(NC3CC3)nc(-c3ccccc3)nc2c1 [1a, N-Cyclopropyl-7-nitro-2-phenyl-4-quinazolinamine] | 1.9 ± 0.2 µM | 
2 | O=[N+]([O-])c1ccc2c(NC3CC3)nc(-c3ccncc3)nc2c1 [5a, N-Cyclopropyl-7-nitro-2-(4-pyridinyl)-4-quinazolinamine] | > 10 µM | 
3 | Nc1ccc2c(NC3CC3)nc(-c3ccncc3)nc2c1 [5b, N^4-Cyclopropyl-2-(4-pyridinyl)-4,7-quinazolinediamine] | > 50 µM | 
4 | O=[N+]([O-])c1ccc2c(NCC3CC3)nc(-c3ccccc3)nc2c1 [6a, N-(Cyclopropylmethyl)-7-nitro-2-phenyl-4-quinazolinamine] | 0.46 ± 0.21 µM | 
5 | Nc1ccc2c(NCC3CC3)nc(-c3ccccc3)nc2c1 [6b, N^4-(Cyclopropylmethyl)-2-phenyl-4,7-quinazolinediamine] | 4.7 ± 0.7 µM | 
6 | O=[N+]([O-])c1ccc2c(NCc3ccccc3)nc(-c3ccccc3)nc2c1 [7a, N-Benzyl-7-nitro-2-phenyl-4-quinazolinamine] | 0.32 ± 0.09 µM | 
7 | Nc1ccc2c(NCc3ccccc3)nc(-c3ccccc3)nc2c1 [7b, N^4-Benzyl-2-phenyl-4,7-quinazolinediamine] | 2.2 ± 0.8 µM | 
8 | O=[N+]([O-])c1ccc2c(NCc3ccccc3)nc(-c3ccncc3)nc2c1 [7c, N-Benzyl-7-nitro-2-(4-pyridinyl)-4-quinazolinamine] | 0.81 ± 0.1 µM | 
9 | O=[N+]([O-])c1ccc2c(NCCc3ccccc3)nc(-c3ccccc3)nc2c1 [8a, 7-Nitro-2-phenyl-N-(2-phenylethyl)-4-quinazolinamine] |  | 0.28 µM
10 | Nc1ccc2c(NCCc3ccccc3)nc(-c3ccccc3)nc2c1 [8b, 2-Phenyl-N^4-(2-phenylethyl)-4,7-quinazolinediamine] | 1.2 ± 0.3 µM | 
11 | O=[N+]([O-])c1ccc2c(NCCc3ccccc3)nc(-c3ccncc3)nc2c1 [8c, 7-Nitro-N-(2-phenylethyl)-2-(4-pyridinyl)-4-quinazolinamine] | 1.8 ± 0.3 µM | 
